Measurements published in patent publication US20100056627A1, “PHARMACEUTICAL COMPOSITIONS OF ALKYL GALLATES” (priority 2006, published 2010).
≈ marks a conversion by molar mass, not a printed value. Where “and” joins values, the source holds several entries; their conditions need not be identical. Identical values can stand only once. Like-named read-outs stand apart in the source and are kept apart here.

How the values were obtained:
[1] = test system: herpes virus (HSV-1); assay: Virucidal activity against HSV-1 (Tables 14, 15, FIG. 5); format: cell-based; conditions: for No of plaques: Table 15, J1816 0, NaCitrate 0.90%
[2] = test system: influenza virus B/T/1/05; assay: Time course of virucidal activity at 37° C., infectivity by plaque assay in MDCK cells (FIGS. 6 to 12); format: cell-based
Description: The experiments in FIGS. 7 to 12 were carried out at 37° C. The infectivity of viruses was determined using MDCK cells by the plaque assay method.
This virucidal activity of octyl gallate was reinforced by propyl gallate also against influenza virus A/Aichi (H3N2) in the same manner as above.

[3] = test system: influenza virus A/Aichi (H3N2); assay: Virucidal activity against influenza virus A/Aichi (H3N2) (Table 16); conditions: for No of plaques: Table 16
[4] = test system: clinical isolates MRSA and MSSA; conditions: for Recrystalized octyl gallate MIC: sodium ascorbate 0.5 mg/ml; for MIC50 / MIC: Staphylococcus aureus, MRSA|MSSA; for MIC50: read-out: MIC50, 24 h MIC, MRSA, trisodium citrate medium
[5] = test system: gram-positive and gram-negative bacteria; assay: MIC (minimum growth inhibition concentration), 2-fold serial agar plate dilution on Mueller Hinton II Agar, with concomitant alkyl gallate and salt; conditions: for MIC: 24 h

CCCCCCCCOC(=O)c1cc(O)c(O)c(O)c1 [octyl gallate]
No of plaques ([1]; octyl gallate 60 mg/L, propyl gallate 300 mg/L): 0 | No of plaques ([1]; octyl gallate 100 mg/L): 0 | No of plaques ([1]; octyl gallate 100 mg/L, propyl gallate 300 mg/L): 0 | virucidal activity of octyl gallate against HSV-1 ([1]; with 60 mg/L of propyl gallate, FIG. 5): marked reinforcement | time required for killing viruses ([2]; concomitant use of octyl gallate and propyl gallate, FIG. 6): shortened to a large extent | virucidal activity of octyl gallate alone ([2]; influenza virus B/T/1/05, FIG. 7): has a virucidal activity | time until the infectivity to cells is lost ([2]; octyl gallate 30 mg/L and propyl gallate 300 mg/L, 37° C., FIG. 12): ≤ 1 min | No of plaques ([3]; octyl gallate 20 mg/L, J1816 60 mg/L, NaCitrate 0.90%): 0 | No of plaques ([3]; octyl gallate 20 mg/L, propyl gallate 300 mg/L, J1816 150 mg/L, NaCitrate 0.90%): 0 | No of plaques ([3]; octyl gallate 40 mg/L, J1816 20 mg/L, NaCitrate 0.90%): 0 | No of plaques ([3]; octyl gallate 40 mg/L, propyl gallate 300 mg/L, J1816 210 mg/L, NaCitrate 0.90%): 0 | No of plaques ([3]; octyl gallate 60 mg/L, J1816 180 mg/L, NaCitrate 0.90%): 0 | No of plaques ([3]; octyl gallate 60 mg/L, J1816 180 mg/L, NaCitrate not given): 0 | No of plaques ([3]; octyl gallate 60 mg/L, propyl gallate 300 mg/L, J1816 270 mg/L, NaCitrate 0.90%): 0 | No of plaques ([3]; octyl gallate 80 mg/L, J1816 240 mg/L, NaCitrate 0.90%): 0 | No of plaques ([3]; octyl gallate 80 mg/L, propyl gallate 300 mg/L, J1816 330 mg/L, NaCitrate 0.90%): 0 | No of plaques ([3]; octyl gallate 100 mg/L, J1816 300 mg/L, NaCitrate 0.90%): 0 | No of plaques ([3]; octyl gallate 100 mg/L, propyl gallate 300 mg/L, J1816 390 mg/L, NaCitrate 0.90%): 0 | virucidal activity of octyl gallate against influenza virus A/Aichi (H3N2) ([3]; with propyl gallate): reinforced | Recrystalized octyl gallate MIC ([4]; MHA (+0.9% disodium hydrogen citrate), DDW, 24 h): 0.625 µg/mL and 1.25 µg/mL | Recrystalized octyl gallate MIC ([4]; MHA (+0.9% trisodium citrate), propyl gallate 100 mg/L (with J-1216), 24 h): 1.25 µg/mL | Recrystalized octyl gallate MIC ([4]; MHA (+0.9% trisodium citrate), propyl gallate 200 mg/L (with J-1216), 24 h): 0.625 µg/mL and 1.25 µg/mL | octyl gallate concentration at which all strains were killed ([4]; MRSA (21 strains) and MSSA (8 strains), concomitant propyl gallate 50 mg/L, disodium hydrogen citrate): 1.25 mg/L | MIC50 ([4]; 24 h, J-1216 600 mg/L): 20 µg/mL (≈ 70.8 µM) | MIC50 ([4]; 24 h, propyl gallate 75 mg/L): 10 µg/mL (≈ 35.4 µM) | MIC50 ([4]; 24 h, propyl gallate 100 mg/L): 2.5 µg/mL (≈ 8.85 µM) | MIC50 ([4]; 24 h, propyl gallate 200 mg/L): 2.5 µg/mL (≈ 8.85 µM) | MIC ([4]; 24 h, read-out: MIC100, 24 h MIC, MRSA, disodium hydrogen citrate medium, DDW): 2.5 µg/mL (≈ 8.85 µM) | MIC ([4]; 24 h, read-out: MIC100, 24 h MIC, MRSA, disodium hydrogen citrate medium, propyl gallate 50 mg/L): 1.25 µg/mL (≈ 4.43 µM) | MIC ([4]; 24 h, read-out: MIC100, 24 h MIC, MRSA, trisodium citrate medium, J-1216 600 mg/L): 50 µg/mL (≈ 177 µM) | MIC ([4]; 24 h, read-out: MIC100, 24 h MIC, MRSA, trisodium citrate medium, propyl gallate 75 mg/L): 10 µg/mL (≈ 35.4 µM) | MIC ([4]; 24 h, read-out: MIC100, 24 h MIC, MRSA, trisodium citrate medium, propyl gallate 100 mg/L): 5 µg/mL (≈ 17.7 µM) | MIC ([4]; 24 h, read-out: MIC100, 24 h MIC, MRSA, trisodium citrate medium, propyl gallate 200 mg/L): 5 µg/mL (≈ 17.7 µM) | MIC ([4]; 24 h, read-out: Octyl gallate MIC, CAMHA, isoamyl gallate 50 μg/mL, 24 h): ≤ 0.0244 µg/mL | MIC ([4]; 24 h, read-out: Recrystalized octyl gallate MIC, MHA (+0.9% disodium hydrogen citrate), sodium ascorbate 0.5 mg/ml, DDW, 24 h): 2.5 µg/mL (≈ 8.85 µM) | MIC ([4]; 24 h, read-out: Recrystalized octyl gallate MIC, MHA (+0.9% disodium hydrogen citrate), sodium ascorbate 0.5 mg/ml, propyl gallate 50 mg/L, 24 h): 1.25 µg/mL (≈ 4.43 µM) | MIC ([4]; 24 h, read-out: Recrystalized octyl gallate MIC, MHA (+0.9% trisodium citrate), sodium ascorbate 0.5 mg/ml, propyl gallate 100 mg/L (with J-1216), 24 h): 2.5 µg/mL (≈ 8.85 µM) | MIC ([4]; 24 h, read-out: Recrystalized octyl gallate MIC, MHA (+0.9% trisodium citrate), sodium ascorbate 0.5 mg/ml, propyl gallate 200 mg/L (with J-1216), 24 h): 2.5 µg/mL (≈ 8.85 µM) | MIC ([4]; 48 h, read-out: Octyl gallate MIC, Isoamyl G none, 48 h, strain = c6 of each row): 31.2 µg/mL (≈ 111 µM) | MIC Range, 24 h MIC, MRSA ([4]; disodium hydrogen citrate medium, DDW): 0.625 to 2.5 µg/mL | MIC Range, 24 h MIC, MRSA ([4]; disodium hydrogen citrate medium, propyl gallate 50 mg/L): 0.625 to 1.25 µg/mL | MIC Range, 24 h MIC, MRSA ([4]; trisodium citrate medium, J-1216 600 mg/L): 20 to 50 µg/mL | MIC Range, 24 h MIC, MRSA ([4]; trisodium citrate medium, propyl gallate 75 mg/L): 2.5 to 10 µg/mL | MIC Range, 24 h MIC, MRSA ([4]; trisodium citrate medium, propyl gallate 100 mg/L): 1.25 to 5 µg/mL | MIC Range, 24 h MIC, MRSA ([4]; trisodium citrate medium, propyl gallate 200 mg/L): 0.0625 to 5 µg/mL | MIC ([5]; read-out: Octyl gallate MIC, NaCl 4%, isoamyl gallate 100 μg/mL): 0.98 µg/mL | MIC ([5]; read-out: Recrystalized octyl gallate MIC, Dec. 24, 2007, MHA (+0.9% disodium hydrogen citrate), sodium ascorbate 0.5 mg/ml, propyl gallate 300 mg/L): > 100 µg/mL | change of MIC value of octyl gallate by isoamyl gallate ([5]; as the amount of NaCl added (2 to 4%) increases (Table 4)): markedly decreased | effect on bacteria of concomitant use with propyl gallate ([5]; propyl gallate 300 mg/L, except for three strains of bacteria): completely killed | MIC of octyl gallate lower than that of chlorhexidine gluconate, maximum ([5]; with isoamyl gallate at or below MIC and NaCl): ≤ 640 times
